Reference: patent publication US10517926B2, “Oligopeptide having proinflammatory cytokine secretion-inhibiting activity” (Osaka University, priority 2015, dated 2019)

How the values were obtained:
[1] = tested on: RAW264.7 cells; assay: Osteoclast-related mRNA expression (NFATc1, ACP5) by real-time RT-PCR; assay type: cell-based, mouse; conditions: MHP1 100 μg/ml, 3 days, FIG. 12A, 12B
Description: It has recently been reported that the administration of RANKL protein to mice induces the activation of osteoclasts. Accordingly, the influence of the RANKL peptide on osteoclasts was examined. The specific examination procedures were as follows. MHP1 (final concentration: 100 μg/ml) or RANKL protein (final concentration: 10 ng/ml) was added to a medium (DMEM medium (+4% FBS)) in which RAW264.7 cells were cultured, and the cells were collected after 10 minutes and 3 days.
For the samples collected after 10 minutes, nuclear proteins of the cells were extracted using the Nuclear Extract Kit (Active Motif), and the degree of NFκB (p65) activation was measured by the TransAM NFkB p65 Kit (Active Motif). On the other hand, for the samples collected after 3 days, the mRNA expression levels of NFATc1 and ACP5 were analyzed by real-time RT-PCR.

[2] = tested on: THP1 cells; assay: Proinflammatory cytokine secretion inhibition, human macrophage cells; assay type: cell-based; conditions: MHP6 10-100 μg/ml or MHP1 100 μg/ml, LPS 2 ng/ml, 24 hours, FIG. 14
Description: THP1 cells (human-derived macrophage cell line) were cultured in a DMEM medium (+4% FBS) containing MHP6 (human-derived; final concentration: 10, 30, 50, or 100 μg/ml) or MHP1 (mouse-derived; final concentration: 100 μg/ml), and LPS (final concentration: 2 ng/ml) for 24 hours by a standard method. After culture, the concentration of IL-6 in the medium was measured by the ELISA method.

[3] = tested on: cerebral infarction model mice; assay: Necrosis inhibition by intravenous administration in cerebral infarction models; assay type: in vivo, mouse; conditions: 300 μG i.v. 4 hours after infarction, then 336 μg s.c. over 21 hours
Description: A cerebral ischemic area was artificially developed in wild-type mice (C57BL6/J) using embolic suture. Specifically, nylon suture was inserted from the right external carotid artery into the intracranial internal carotid artery, and the right middle cerebral artery was temporarily occluded. The embolic suture was removed 40 minutes after the formation of the ischemic area, and the blood was reperfused. Four hours after the formation of the ischemic area, 2 μl of MHP1 solution (0.625 μg/2 μl, the solvent was artificial cerebrospinal fluid (aCSF)) or 2 μl of aCSF was administered by injection into the ventricle of the mice with a neurological severe score of 1 or 2. […] The area of the cresyl violet staining site was regarded as the cerebral infarct area (necrosis site), and the ratio of cerebral infarct area was determined by the following formula. […]
Cerebral infarction models were produced in the same manner as in Example 10. […] Twenty-four hours and forty-eight hours after the production of the cerebral infarction models, neurological severity scores were measured. Furthermore, the mice were sacrificed 48 hours after the production of the cerebral infarction models, and the ratio of cerebral infarct area was determined in the same manner as in Example 10.

[4] = tested on: cerebral ischemia mice (C57BL6/J); assay: Necrosis after cerebral ischemia, intraventricular administration; assay type: in vivo, mouse
Description: A cerebral ischemic area was artificially developed in wild-type mice (C57BL6/J) using embolic suture. Specifically, nylon suture was inserted from the right external carotid artery into the intracranial internal carotid artery, and the right middle cerebral artery was temporarily occluded. The embolic suture was removed 40 minutes after the formation of the ischemic area, and the blood was reperfused. Four hours after the formation of the ischemic area, 2 μl of MHP1 solution (0.625 μg/2 μl, the solvent was artificial cerebrospinal fluid (aCSF)) or 2 μl of aCSF was administered by injection into the ventricle of the mice with a neurological severe score of 1 or 2. Separately, a group to which edaravone, which is a known brain-protecting agent, was administered was also produced (aCSF intraventricular administration+3 mg/kg of edaravone i.p., administered every 12 hours). The brain was removed 72 hours after the formation of the ischemic area, and a brain slice including left and right brain portions in positions of 1.4, 0.7, and 0 mm in the front and rear of the bregma was produced. The slice was stained with cresyl violet. The area of the […] was regarded as the cerebral infarct area (necrosis site), and the ratio of cerebral infarct area was determined by the following formula. […] Ratio of cerebral infarct area=([normal side brain area]−([cerebral infarct side total area]−[cerebral infarct area])/normal side brain area)×100
Furthermore, the ratio of F4/80-positive cells (activated macrophage/microglia) in the cerebral infarction hemisphere in a position of 0.7 mm from the bregma (/middle cerebral artery region), and the number of the cells were measured.

[5] = tested on: cerebral infarction model mice; assay: Osteoclasts after cerebral infarction in vivo (TRAP staining of radius); set-up: species or system mouse; conditions: 300 μG i.v. then 336 μg s.c.; radius distal portion, paralyzed side, 48 hours; FIG. 24
Description: Cerebral infarction models were produced in the same manner as in Example 10. Four hours after the production of the cerebral infarction models, 300 μG/150 μL of MHP1 administration solution was administered through the cervical vein. Thereafter, 336 μg was continuously administered by subcutaneous injection using an Alzet pump for 21 hours. Forty-eight hours after the production of the cerebral infarction models, the radius distal portion of the left hand (paralyzed side) was stained with TRAP, and the ratio of the stained region (osteoclast surface) relative to the bone surface was calculated based on the obtained staining images.

[6] = tested on: neuron-glia mixed culture; assay: Neuronal cell death by LPS in neuron-glia mixed culture system (MAP2 staining); assay type: cell-based, mouse; conditions: B group; MHP1 50 μg/ml pretreatment, LPS 10 μg/ml, 5 days; FIG. 6
Description: Neuronal tissue (a mixture of neurons and glial cells) was removed from a mouse fetus 21 days after fertilization (21st fetal day), and cultured in Neurobasal medium (+B-27, +5% HS) for 9 days. Then, the cells were divided into 3 groups (A to C groups), and subjected to the following treatments.
The cells were cultured for 24 hours after the medium was changed to a medium (Neurobasal A/N2 supplement) containing MHP1 (final concentration: 50 μg/ml). Then, LPS (final concentration: 10 μg/ml) was added to the medium, and the cells were further cultured for 5 days. After culture, immunostaining was performed according to a general method using an antibody (M4403, produced by Sigma-Aldrich) against MAP2, which was a neuronal cell marker, as a primary antibody (primary antibody: 1/1000 dilution, and second antibody (A 11001, produced by Invitrogen): 1/1000 dilution). The staining images were observed, and the ratio of the area of the stained region (i.e., the region occupied by the survival neurons) to the culture dish area was calculated.

[7] = tested on: RAW264.7 cells; assay: Proinflammatory cytokine secretion inhibition, LPS-stimulated macrophage cells (ELISA); assay type: cell-based, mouse; conditions: MHP1 30, 50 or 100 μg/ml, LPS 2 ng/ml, 24 hours
Description: RAW264.7 cells (mouse-derived macrophage cell line) were cultured in a DMEM medium (+4% FBS) containing MHP1 (final concentration: 30, 50, or 100 μg/ml) and LPS (final concentration: 2 ng/ml) for 24 hours by a standard method. After culture, the concentrations of IL-6 and TNFα in the medium were measured by the ELISA method. The results are shown in FIG. 3 (IL-6) and FIG. 4 (TNFα).

In the case of “LMVYVVKTSIKIPSSHNLMKGGSTKNWSGN (listed as Mus musculus) [MHP1]”, the “expression of osteoclast-related mRNA (NFATc1, ACP5)” value [1] is reported as “did not promote”, the “proinflammatory cytokine (IL-6) secretion-inhibiting activity on human-derived macrophage cells” value [2] is reported as “exhibited proinflammatory cytokine secretion-inhibiting activity” and the “symptoms of cerebral infarction (neurological severity scores)” value ([3]; 24 and 48 hours, FIG. 23) is reported as “could be relieved”. The “necrosis occurring after cerebral ischemia (ratio of cerebral infarct area)” value ([3]; 48 hours, FIG. 22) was “could be suppressed”, the “necrosis occurring after cerebral ischemia (ratio of cerebral infarct area)” value ([4]; 0.625 μg/2 μl into the ventricle 4 hours after ischemia, brain at 72 hours, FIG. 15) was “could be inhibited” and the “expression of activated macrophage/microglia (F4/80-positive cells)” value ([4]; cerebral infarction hemisphere, 0.7 mm from the bregma, FIG. 16) was “suppressed”. For the same sequence, the “degree of inhibition of necrosis compared with edaravone administration” value ([4]; one MHP1 administration vs edaravone 3 mg/kg i.p. every 12 hours, FIG. 15) was “higher than edaravone administration”, the “increase in the number of TRAP-positive osteoclasts on the bone ridge due to cerebral infarction” value [5] was “suppressed” and the “neuronal cell death by LPS” value [6] was “suppressed”. For the same sequence, the “increase in the amount of IL-6 secretion by LPS” value ([7]; FIG. 3) was “suppressed” and the “increase in the amount of TNFα secretion by LPS” value ([7]; FIG. 4) was “suppressed”.
